{"source": "paper PMC12700101", "about": "(2025)", "key": {"[1]": {"tested_on": "Dopamine MAB Cy3–BHQ-1 (DNA, aptamer) ACGCCAGTTTGAAGGTTCGTTCGCAGGTGTGGAGTGACGT", "test": "fluorescence melting", "settings": "1x PBS, 2 mM MgCl2; derived from two Tm (49.5 ± 0.3, 52.7 ± 0.8); 50 µM dopamine, pH 8.0"}, "[2]": {"tested_on": "Dopamine MAB FAM–BHQ-1 (DNA, aptamer) ACGCCAGTTTGAAGGTTCGTTCGCAGGTGTGGAGTGACGT", "test": "fluorescence melting", "settings": "1x PBS, 2 mM MgCl2; derived from two Tm (44.8 ± 0, 37.7 ± 0.1); 50 µM dopamine, pH 8.0"}, "[3]": {"tested_on": "Dopamine MAB BHQ-1–FAM (DNA, aptamer) ACGCCAGTTTGAAGGTTCGTTCGCAGGTGTGGAGTGACGT", "test": "fluorescence melting", "settings": "1x PBS, 2 mM MgCl2; derived from two Tm (40.0 ± 0.2, 37.3 ± 0.1); 50 µM dopamine, pH 8.0"}, "[4]": {"tested_on": "Dopamine MAB Cy3–BHQ-2 (DNA, aptamer) ACGCCAGTTTGAAGGTTCGTTCGCAGGTGTGGAGTGACGT", "test": "fluorescence melting", "settings": "1x PBS, 2 mM MgCl2; derived from two Tm (49.4 ± 0.8, 53.3 ± 0.8); 50 µM dopamine, pH 8.0"}, "[5]": {"tested_on": "Dopamine DBS Cy3/BHQ-1 (int.) (DNA, aptamer) AAATACAACAAGAAAAAACTCTCGGGACGACGCCAGTTTGAAGGTTCGTTCGCAGGTGTGGAGTGACGTCGTCCC", "test": "fluorescence melting", "settings": "1x PBS, 2 mM MgCl2; pH 8.0; 50 µM dopamine; derived from two Tm (50.9, 50.4); displacement strand 1:4"}, "[6]": {"tested_on": "Dopamine DBS Cy3/BHQ-1 (term.) (DNA, aptamer) AAATACAACAAGAAAAAACTCTCGGGACGACGCCAGTTTGAAGGTTCGTTCGCAGGTGTGGAGTGACGTCGTCCC", "test": "fluorescence melting", "settings": "1x PBS, 2 mM MgCl2; pH 8.0; 50 µM dopamine; derived from two Tm (51.2, 50.6); displacement strand 1:4"}, "[7]": {"tested_on": "Dopamine DBS Cy3/BHQ-1 (P3) (DNA, aptamer) AAATACAACAAGAAAAAACTCTCGGGACGACGCCAGTTTGAAGGTTCGTTCGCAGGTGTGGAGTGACGTCGTCCC", "test": "fluorescence melting", "settings": "1x PBS, 2 mM MgCl2; pH 8.0; 50 µM dopamine; derived from two Tm (50.3, 50.1); displacement strand 1:4"}, "[8]": {"tested_on": "Dopamine DBS Cy3(+T)/BHQ-1 (DNA, aptamer) AAATACAACAAGAAAAAACTCTCGGGACGACGTCCAGTTTGAAGGTTCGTTCGCAGGTGTGGAGTGACGTCGTCCC", "test": "fluorescence melting", "settings": "1x PBS, 2 mM MgCl2; pH 8.0; 50 µM dopamine; derived from two Tm (51.6, 50.9); displacement strand 1:4"}, "[9]": {"tested_on": "Dopamine DBS Cy3(+T)/BHQ-1 (int.) (DNA, aptamer) AAATACAACAAGAAAAAACTCTCGGGACGACGTCCAGTTTGAAGGTTCGTTCGCAGGTGTGGAGTGACGTCGTCCC", "test": "fluorescence melting", "settings": "1x PBS, 2 mM MgCl2; pH 8.0; 50 µM dopamine; derived from two Tm (50.3, 49.9); displacement strand 1:4"}, "[10]": {"tested_on": "Dopamine DBS Cy3(+T)/BHQ-1 (term.) (DNA, aptamer) AAATACAACAAGAAAAAACTCTCGGGACGACGTCCAGTTTGAAGGTTCGTTCGCAGGTGTGGAGTGACGTCGTCCC", "test": "fluorescence melting", "settings": "1x PBS, 2 mM MgCl2; pH 8.0; 50 µM dopamine; derived from two Tm (50.8, 50.0); displacement strand 1:4"}, "[11]": {"tested_on": "Dopamine DBS FAM(+T)/BHQ-1 (DNA, aptamer, 6-FAM-modified dT (click, i6-FAMK) at 33) AAATACAACAAGAAAAAACTCTCGGGACGACGTCCAGTTTGAAGGTTCGTTCGCAGGTGTGGAGTGACGTCGTCCC …", "test": "fluorescence melting", "settings": "1x PBS, 2 mM MgCl2; pH 8.0; 50 µM dopamine; derived from two Tm (49.1, 48.9); displacement strand 1:4"}, "[12]": {"tested_on": "Dopamine DBS Cy3(+T)–BHQ-1 (DNA, aptamer) AAATACAACAAGAAAAAACTCTCGGGACGACGTACCAGTTTGAAGGTTCGTTCGCAGGTGTGGAGTGACGTCGTCCC", "test": "fluorescence strand-displacement titration", "settings": "1x PBS, 2 mM MgCl2; apparent; pH 8.0, 25 °C; displaced 42-nt 5'-BHQ-1 strand, 4 eq"}, "[13]": {"tested_on": "Dopamine DBS FAM(+T)–BHQ-1 Terminal (DNA, aptamer, 6-FAM-dT (azide click) at 33) AAATACAACAAGAAAAAACTCTCGGGACGACGTACCAGTTTGAAGGTTCGTTCGCAGGTGTGGAGTGACGTCGTCCC", "test": "fluorescence strand-displacement titration", "settings": "1x PBS, 2 mM MgCl2; apparent; pH 8.0, 25 °C; displaced 43-nt strand, 5'-BHQ-1 plus T, 4 eq"}, "[14]": {"tested_on": "Dopamine DBS FAM(+T)–BHQ-1 Internal (DNA, aptamer, 6-FAM-dT (azide click) at 33) AAATACAACAAGAAAAAACTCTCGGGACGACGTACCAGTTTGAAGGTTCGTTCGCAGGTGTGGAGTGACGTCGTCCC", "test": "fluorescence strand-displacement titration", "settings": "1x PBS, 2 mM MgCl2; apparent; pH 8.0, 25 °C; displaced 42-nt strand, internal BHQ-1, 4 eq"}, "[15]": {"tested_on": "Dopamine MAB Cy3–BHQ-1 (DNA, aptamer) ACGCCAGTTTGAAGGTTCGTTCGCAGGTGTGGAGTGACGT", "test": "fluorescence quenching titration (molecular aptamer beacon)", "settings": "1x PBS, 2 mM MgCl2; apparent; pH 8.0, 25 °C"}, "[16]": {"tested_on": "Dopamine MAB BHQ-1–FAM (DNA, aptamer) ACGCCAGTTTGAAGGTTCGTTCGCAGGTGTGGAGTGACGT", "test": "fluorescence quenching titration (molecular aptamer beacon)", "settings": "1x PBS, 2 mM MgCl2; apparent; pH 8.0, 25 °C"}}, "data": [{"compound": "NCCc1ccc(O)c(O)c1", "values": [{"measurement": "Tm", "setting": "[1]", "result": 3.2, "unit": "°C"}, {"measurement": "Tm", "setting": "[2]", "result": -7.1, "unit": "°C"}, {"measurement": "Tm", "setting": "[3]", "result": -2.7, "unit": "°C"}, {"measurement": "Tm", "setting": "[4]", "result": 3.9, "unit": "°C"}, {"measurement": "Tm", "setting": "[5]", "result": -0.5, "unit": "°C"}, {"measurement": "Tm", "setting": "[6]", "result": -0.6, "unit": "°C"}, {"measurement": "Tm", "setting": "[7]", "result": -0.2, "unit": "°C"}, {"measurement": "Tm", "setting": "[8]", "result": -0.7, "unit": "°C"}, {"measurement": "Tm", "setting": "[9]", "result": -0.4, "unit": "°C"}, {"measurement": "Tm", "setting": "[10]", "result": -0.8, "unit": "°C"}, {"measurement": "Tm", "setting": "[11]", "result": -0.2, "unit": "°C"}, {"measurement": "Kd", "setting": "[12]", "result": "76.7 ± 5.5", "unit": "µM"}, {"measurement": "Kd", "setting": "[13]", "result": "10.2 ± 1.0", "unit": "µM"}, {"measurement": "Kd", "setting": "[14]", "result": "7.5 ± 0.9", "unit": "µM"}, {"measurement": "Kd", "setting": "[15]", "result": "53.8 ± 8.8", "unit": "µM"}, {"measurement": "Kd", "setting": "[16]", "result": "5.3 ± 0.8", "unit": "µM"}]}]}
